Measurements as given in patent US11236086B2, “Substituted pyrrolopyridines as inhibitors of activin receptor-like kinase” (BLUEPRINT MEDICINES CORPORATION, priority 2017, dated 2022).
pIC50: −log10 of the molar value.

Experiments:
[1] = target: T1, human ALK2 R206H (Homo sapiens, UniProt Q04771, R206H); test: Cell-based ALK2-R206H cell activity assay (Smad1-Ser463/Ser465 phosphorylation by AlphaLISA in HEK293-ALK2-R206H cells); settings: phospho-Smad1 AlphaLISA, read-out: Cell Line (Cell Assay, IC50 class)
T1 construct: expressed in transfected cells; host or cells: HEK293 (ATCC CRL1573), lentivirus transduction, blasticidin selection
T1 sequence (Q04771 21-509 R206H): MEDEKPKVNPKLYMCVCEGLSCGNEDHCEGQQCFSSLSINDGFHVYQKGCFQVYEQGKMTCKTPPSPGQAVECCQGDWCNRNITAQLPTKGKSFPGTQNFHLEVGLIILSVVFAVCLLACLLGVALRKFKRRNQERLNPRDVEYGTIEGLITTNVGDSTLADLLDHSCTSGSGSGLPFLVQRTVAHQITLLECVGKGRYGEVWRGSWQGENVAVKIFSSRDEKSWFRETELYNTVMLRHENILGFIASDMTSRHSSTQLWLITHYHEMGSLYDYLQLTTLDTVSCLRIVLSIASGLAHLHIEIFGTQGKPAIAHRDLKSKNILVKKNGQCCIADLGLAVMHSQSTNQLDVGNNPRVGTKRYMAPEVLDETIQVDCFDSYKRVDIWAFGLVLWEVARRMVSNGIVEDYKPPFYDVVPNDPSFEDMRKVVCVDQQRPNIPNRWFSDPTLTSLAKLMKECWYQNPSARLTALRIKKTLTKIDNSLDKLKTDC
Protocol: Example 11. Cell-Based ALK2-R206H Cell Activity Assay
A HEK293 (ATCC, Cat No. CRL1573) based stable cell line expressing human ALK2 R206H cDNA (synthesized by GeneScript, Piscataway, N.J.) and a FLAG tag at the C-terminus was generated by lentivirus transduction and subsequent blasticidin (Life Technologies, Cat No. A1113902) selection at 10 μg/ml for >2 wks. This cell line was named HEK293-ALK2-R206H.
B. Measurement of Smad1-Ser463/Ser465 Phosphorylation by AlphaLISA
HEK293-ALK2-R206H cells were grown, harvested, and then resuspended in serum-free, phenol red-free DMEM high glucose media (Life Technologies, Cat No. 31053). The media also contained 50 units/ml penicillin and 50 μg/ml streptomycin (Life Technologies, Cat. No. 15070-063). HEK293-ALK2-R206H cells were then plated in white opaque 384-wells microplates (2×10^4/well) (OptiPlate-384, PerkinElmer, Waltham, Mass., Cat No. 6007299) overnight (>16h) at 37° C. 5% CO2 for use in the assay.
Test compounds were first diluted to 4 mM or 0.4 mM and then serially diluted 3-fold into 10 different concentrations using DMSO. Each concentration of compound was further diluted 40-fold with phenol red-free DMEM (Life Technologies, Cat No. 31053). 2 μl of the diluted compounds were then dispensed into the HEK293-ALK2-R206H cell-containing wells of the microplates in duplicates. In this way, each compound was tested in 10 doses (3-fold serial dilution with the top concentration being 10 μM or 1 μM). Liquid handling was achieved using a Bravo Automated Liquid Handling Platform (Agilent Technologies). DMSO without compound was used as a negative control. The positive control was 1 μM LDN193189, a known bone morphogenetic protein (BMP inhibitor).
After 2-3 hours of incubation with test compound or control, the cells were lysed and signal was developed using ALPHASCREEN® SUREFIRE® SMAD1 (p-Ser463/465) cellular kinase assay kit (PerkinElmer, Cat No. TGRSM1S10K) following the manufacturer's recommended protocol. The microplates were read using Perkin Elmer ENVISION® plate reader (emission […]). The signal reflected the level of phospho-Ser/463/465-Smad1 in the lysate. The raw data were plotted using the DMSO negative and LDN193189 positive controls as the 0% and 100% inhibition, respectively. The 10-point dose response curve was used to calculate the IC50 values.
The results of this assay are shown in Table 3 in the column labeled “Cell Assay” wherein “A” represents an IC50 of less than or equal to 100 nM; “B” an IC50 of greater than 100 nM and less than or equal to 500 nM; “C” an IC50 of greater than 500 nM. Blank values in the table indicate that the particular compound was not tested in this assay.

[2] = target: T2, ALK2R206H (mutant ALK2, N-terminally tagged with GST) (Homo sapiens, UniProt Q04771, R206H); test: ALK binding assay (LANTHASCREEN TR-FRET competitive binding, displacement of Kinase Tracer 178); settings: read-out: Binding Assay (IC50 class)
T2 construct: purchased Carna Bioscience or ThermoFisher 09-148 or PV6232
T2 sequence (Q04771 21-509 R206H): T1 sequence (Q04771 21-509 R206H)
Protocol: Example 10 ALK Binding Assays
Binding assays were conducted using the LANTHASCREEN® technology (ThermoFisher Scientific). LANTHASCREEN® is a competitive binding, displacement assay where the assumed steady state occupancy of the binding site is measured using a time-resolved, fluorescence energy transfer (TR-FRET) readout between a fluorescent tracer and Europium (Eu)-tagged antibody specific for the kinase or expression tag (e.g., GST) of interest. Displacement of the tracer by a compound of the disclosure reduces, and is directly proportional to, the TR-FRET between the tracer and the antibody. Tracer was used at a concentration equal to or near to its Kd for the kinase. The Eu-tagged antibody was typically used in excess to ensure sampling of all competent protein capable of binding the tracer.
For these assays, a mutant ALK2 was used that was N-terminally tagged with GST (ALK2R206H Carna Bioscience (09-148) or ALK2R206H ThermoFisher (PV6232)); a Eu-tagged anti-GST antibody (ThermoFisher) and Kinase Tracer 178 (ThermoFisher).
In all cases, the kinase (2-5 nM) was mixed with Eu-tagged antibody (4-10 nM) mix and tracer (50 nM) were incubated with test compound titrations prepared in 100% DMSO (1% DMSO final) for 30 minutes at room temperature. All reagents and compounds were dissolved in Kinase Buffer A (ThermoFisher) to achieve the final concentration. The plates were read on a PerkinElmer EnVision® multilabel plate reader or a BioTek Synergy Neo plate reader, and the assay signal was represented as a ratio of the TR-FRET emission (λex 330 nm, λ^em […] and λ^em 665 nm). This readout was normalized to 0% and 100% inhibited control wells, plotted against inhibitor concentration, and fitted to a 4-parameter log dose response curve.
The results of this assay are shown in Table 3 in the column labelled “Binding Assay” wherein “A” represents an IC50 of less than or equal to 10 nM; “B” represents an IC50 of greater than 10 nM and less than or equal to 50 nM; and “C” represents an IC50 of greater than 50 nM. Blank values in the table indicate that the particular compound was not tested in this assay.

| Structure (SMILES) | pIC50 [1] | pIC50 [2] |
| --- | --- | --- |
| CC(C)N1CCN(c2ccc(-c3cc4c(N5CCN(C(=O)C6CC6)CC5)ccnc4[nH]3)cc2)CC1 [Compound 438] | ≥ 7.00 | ≥ 8.00 |
| Cc1nc(-c2[nH]c3nccc(N4CCN(C(=O)OCC(F)F)CC4)c3c2C#N)cs1 [Compound 337] | ≥ 7.00 | ≥ 8.00 |
| CN1CCN(c2ccc(-c3cc4c(N5CCN(C(=O)C6CC6)CC5)ccnc4[nH]3)cn2)CC1 [Compound 382] | ≥ 7.00 | ≥ 8.00 |
| CC(C)(C#N)c1ccc(-c2cc3c(N4CCN(C(=O)C5CC5)CC4)ccnc3[nH]2)cc1 [Compound 252] | ≥ 7.00 | ≥ 8.00 |
| Cn1cc(-c2cc3c(N4CCN(C(=O)OC5COC5)CC4)ccnc3[nH]2)cn1 [Compound 90] | ≥ 7.00 | ≥ 8.00 |
| CCN1CCC(c2ccc(-c3cc4c(N5CCN(C(=O)C6CC6)CC5)ccnc4[nH]3)cc2)C(F)C1 (stereo not drawn) [Compound 442] | ≥ 7.00 | ≥ 8.00 |
| CCC(C)C(=O)N1CCN(c2ccnc3[nH]c(-c4cnn(C)c4)cc23)CC1 (stereo not drawn) [Compound 33] | 6.30 to 7.00 | 7.30 to 8.00 |
| Cc1nc(-c2[nH]c3nccc(N4CCN(C(=O)OC5COC5)CC4)c3c2Cl)cs1 [Compound 344] | ≥ 7.00 | ≥ 8.00 |
| CCn1cc(-c2cc3c(N4CCN(C(=O)C5CC5)CC4)ccnc3[nH]2)cn1 [Compound 23] | 6.30 to 7.00 | ≥ 8.00 |
| Cn1cc(-c2cc3c(N4CCN(C(=O)O[C@H]5COC[C@@H]5F)CC4)ccnc3[nH]2)cn1 [Compound 254] | 6.30 to 7.00 | ≥ 8.00 |
| CS(=O)(=O)N1CCc2nc(-c3cc4c(N5CCN(C(=O)OC6COC6)CC5)ccnc4[nH]3)sc2C1 [Compound 474] | ≥ 7.00 | ≥ 8.00 |
| O=C(OC1COC1)N1CCN(c2ccnc3[nH]c(-c4cn([C@@H]5CCOC5)cn4)cc23)CC1 [Compound 358] | 6.30 to 7.00 | ≥ 8.00 |
| CC(C)n1cnc(-c2cc3c(N4CCN(C(=O)OC5COC5)CC4)ccnc3[nH]2)c1 [Compound 231] | ≥ 7.00 | ≥ 8.00 |
| Cn1cc(-c2cc3c(N4CCN(C(=O)OC5CC(F)(F)C5(F)F)CC4)ccnc3[nH]2)cn1 (stereo not drawn) [Compound 399] | 6.30 to 7.00 | ≥ 8.00 |
| CCS(=O)(=O)c1ccc(-c2cc3c(N4CCN(C(=O)OC5COC5)CC4)ccnc3[nH]2)cc1 [Compound 436] | ≥ 7.00 | ≥ 8.00 |
| Cn1cc(-c2cc3c(N4CCN(C(=O)CC5CCCC5)CC4)ccnc3[nH]2)cn1 [Compound 135] | 6.30 to 7.00 | ≥ 8.00 |
| CCOC(=O)N1CCN(c2ccnc3[nH]c(-c4cnn(CC(C)C#N)c4)cc23)CC1 (stereo not drawn) [Compound 214] | 6.30 to 7.00 | ≥ 8.00 |
| CC(C)n1cc(-c2cc3c(N4CCN(C(=O)C5CC5)CC4)ccnc3[nH]2)cn1 [Compound 65] | ≥ 7.00 | ≥ 8.00 |

| Structure (SMILES) | pIC50 [1] | pIC50 [2] |
| --- | --- | --- |
| Cn1cc(-c2cc3c(N4CCN(C(=O)[C@H]5CC[C@H](C#N)CC5)CC4)ccnc3[nH]2)cn1 [Compound 278] | ≥ 7.00 | ≥ 8.00 |
| CCOC(=O)N1CCN(c2ccnc3[nH]c(-c4ccc(C5(O)CCOCC5)cc4C#N)cc23)CC1 [Compound 441] | ≥ 7.00 | ≥ 8.00 |
| Cn1cc(-c2cc3c(N4CCN(C(=O)OC5CC5)CC4)ccnc3[nH]2)cn1 [Compound 30] | ≥ 7.00 | ≥ 8.00 |
| O=C(O[C@H]1C[C@H](F)C1)N1CCN(c2ccnc3[nH]c(-c4ccc(C5(O)CCOCC5)cn4)cc23)CC1 [Compound 462] | ≥ 7.00 | ≥ 8.00 |
| CCOC(=O)N1CCN(c2ccnc3[nH]c(-c4cnn(C)c4C#N)cc23)CC1 [Compound 70] | ≥ 7.00 | ≥ 8.00 |
| CCCOC(=O)N1CCN(c2ccnc3[nH]c(-c4cnn(C)c4)c(Cl)c23)CC1 [Compound 187] | ≥ 7.00 | ≥ 8.00 |
| N#CC1(c2ccc(-c3cc4c(N5CCN(C(=O)C6CC6)CC5)ccnc4[nH]3)c(F)c2)CC1 [Compound 322] | ≥ 7.00 | ≥ 8.00 |
| CCNC(=O)c1nc(-c2cc3c(N4CCN(C(=O)OC5COC5)CC4)ccnc3[nH]2)cs1 [Compound 415] | 6.30 to 7.00 | ≥ 8.00 |
| Cc1c(-c2cnn(C)c2)[nH]c2nccc(N3CCN(C(=O)O[C@H]4C[C@H](F)C4)CC3)c12 [Compound 245] | ≥ 7.00 | ≥ 8.00 |
| CCOC(=O)N1CCN(c2ccnc3[nH]c(-c4ccc([C@]5(O)CCOC5)cc4)cc23)CC1 [Compound 354] | ≥ 7.00 | ≥ 8.00 |
| Cn1cc(-c2[nH]c3nccc(N4CCN(C(=O)OC5COC5)CC4)c3c2F)cn1 [Compound 178] | 6.30 to 7.00 | ≥ 8.00 |
| Cc1nc(-c2cc3c(N4CCN(C(=O)O[C@H]5C[C@@H](F)C5)CC4)ccnc3[nH]2)cn1C [Compound 243] | ≥ 7.00 | ≥ 8.00 |
| O=C(C1CC1)N1CCN(c2ccnc3[nH]c(-c4ccc(N5CCN(C6COC6)CC5)cc4)cc23)CC1 [Compound 452] | ≥ 7.00 | ≥ 8.00 |
| Cn1cc(-c2cc3c(N4CCN(C(=O)CC(F)(F)F)CC4)ccnc3[nH]2)cn1 [Compound 131] | < 6.30 | 7.30 to 8.00 |
| N#Cc1cc(-c2cc3c(N4CCN(C(=O)OC5COC5)CC4)ccnc3[nH]2)cs1 [Compound 227] | 6.30 to 7.00 | ≥ 8.00 |
| N#Cc1cnc(-c2cc3c(N4CCN(C(=O)OC5COC5)CC4)ccnc3[nH]2)nc1 [Compound 198] | 6.30 to 7.00 | ≥ 8.00 |
| CCOC(=O)N1CCN(c2ccnc3[nH]c(-c4ccc(OC(C)C)cc4)cc23)CC1 [Compound 221] | 6.30 to 7.00 | ≥ 8.00 |
| CCN1CCC(c2ccc(-c3cc4c(N5CCN(C(=O)C6CC6)CC5)ccnc4[nH]3)cc2)C(F)(F)C1 (stereo not drawn) [Compound 460] | ≥ 7.00 | ≥ 8.00 |
